Laboratory results published in patent publication US9475775B2, “Benzazepine dicarboxamide compounds” (Hoffmann-La Roche Inc., priority 2015, dated 2016).

Experiments:
human TLR8 = human TLR8 (Homo sapiens (Human), UniProt Q9NR97); experiment: HEK-Blue human TLR8 cells, NF-κB SEAP reporter assay; type: cell-based; conditions: stimulation for 20 hours
Source text: (§1) For TLR8 and TLR7 activity testing, HEK-Blue human TLR8 or TLR7 cells (Invivogen, San Diego, Calif., USA) are used, respectively. These cells are designed for studying the stimulation of human TLR8 or TLR7 by monitoring the activation of NF-κB. A SEAP (secreted embryonic alkaline phosphatase) reporter gene is placed under the control of the IFN-b minimal promoter fused to five NF-κB and AP-1-binding sites. Therefore the reporter expression is regulated by the NF-κB promoter upon stimulation of human TLR8 or TLR7 for 20 hours. The cell culture supernatant SEAP reporter activity was determined using Quanti Blue kit (Invivogen, San Diego, Ca, USA) at a wavelength of 640 nm, a detection medium that turns purple/blue in the presence of alkaline phosphatase. EC50 values were determined using Activity Base analysis (ID Business Solution, Limited).

human TLR7 = human TLR7 (Homo sapiens (Human), UniProt Q9NYK1); experiment: HEK-Blue human TLR7 cells, NF-κB SEAP reporter assay; type: cell-based; conditions: stimulation for 20 hours
human TLR7, sequence (Q9NYK1 27-1049): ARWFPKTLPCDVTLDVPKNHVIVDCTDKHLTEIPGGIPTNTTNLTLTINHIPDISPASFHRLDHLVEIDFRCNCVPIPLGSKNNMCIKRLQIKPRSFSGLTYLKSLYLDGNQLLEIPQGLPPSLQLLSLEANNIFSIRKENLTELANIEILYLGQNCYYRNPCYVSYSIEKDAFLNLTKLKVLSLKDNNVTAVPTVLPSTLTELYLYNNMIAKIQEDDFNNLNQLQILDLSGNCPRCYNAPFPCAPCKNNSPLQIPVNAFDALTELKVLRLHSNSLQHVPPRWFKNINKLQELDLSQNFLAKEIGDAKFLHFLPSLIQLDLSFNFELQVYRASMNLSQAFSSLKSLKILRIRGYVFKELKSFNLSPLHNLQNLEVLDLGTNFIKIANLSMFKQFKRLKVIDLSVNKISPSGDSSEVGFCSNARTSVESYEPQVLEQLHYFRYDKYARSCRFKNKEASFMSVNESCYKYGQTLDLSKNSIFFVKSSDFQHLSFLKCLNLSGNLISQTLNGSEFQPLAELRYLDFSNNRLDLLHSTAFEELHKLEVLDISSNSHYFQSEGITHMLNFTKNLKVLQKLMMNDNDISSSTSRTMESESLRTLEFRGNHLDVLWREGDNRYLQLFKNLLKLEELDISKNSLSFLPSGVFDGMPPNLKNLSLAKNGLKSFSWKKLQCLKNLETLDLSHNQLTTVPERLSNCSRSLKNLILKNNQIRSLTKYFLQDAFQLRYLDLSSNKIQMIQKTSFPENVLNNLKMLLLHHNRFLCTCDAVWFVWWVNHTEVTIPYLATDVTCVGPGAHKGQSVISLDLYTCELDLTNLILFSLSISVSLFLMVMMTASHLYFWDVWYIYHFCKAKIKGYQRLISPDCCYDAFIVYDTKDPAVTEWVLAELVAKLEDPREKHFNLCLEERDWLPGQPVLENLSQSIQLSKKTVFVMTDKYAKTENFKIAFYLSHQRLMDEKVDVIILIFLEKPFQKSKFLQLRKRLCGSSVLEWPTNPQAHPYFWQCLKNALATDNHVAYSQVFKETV
Source text: as §1

human TLR8, sequence (Q9NR97 27-1041): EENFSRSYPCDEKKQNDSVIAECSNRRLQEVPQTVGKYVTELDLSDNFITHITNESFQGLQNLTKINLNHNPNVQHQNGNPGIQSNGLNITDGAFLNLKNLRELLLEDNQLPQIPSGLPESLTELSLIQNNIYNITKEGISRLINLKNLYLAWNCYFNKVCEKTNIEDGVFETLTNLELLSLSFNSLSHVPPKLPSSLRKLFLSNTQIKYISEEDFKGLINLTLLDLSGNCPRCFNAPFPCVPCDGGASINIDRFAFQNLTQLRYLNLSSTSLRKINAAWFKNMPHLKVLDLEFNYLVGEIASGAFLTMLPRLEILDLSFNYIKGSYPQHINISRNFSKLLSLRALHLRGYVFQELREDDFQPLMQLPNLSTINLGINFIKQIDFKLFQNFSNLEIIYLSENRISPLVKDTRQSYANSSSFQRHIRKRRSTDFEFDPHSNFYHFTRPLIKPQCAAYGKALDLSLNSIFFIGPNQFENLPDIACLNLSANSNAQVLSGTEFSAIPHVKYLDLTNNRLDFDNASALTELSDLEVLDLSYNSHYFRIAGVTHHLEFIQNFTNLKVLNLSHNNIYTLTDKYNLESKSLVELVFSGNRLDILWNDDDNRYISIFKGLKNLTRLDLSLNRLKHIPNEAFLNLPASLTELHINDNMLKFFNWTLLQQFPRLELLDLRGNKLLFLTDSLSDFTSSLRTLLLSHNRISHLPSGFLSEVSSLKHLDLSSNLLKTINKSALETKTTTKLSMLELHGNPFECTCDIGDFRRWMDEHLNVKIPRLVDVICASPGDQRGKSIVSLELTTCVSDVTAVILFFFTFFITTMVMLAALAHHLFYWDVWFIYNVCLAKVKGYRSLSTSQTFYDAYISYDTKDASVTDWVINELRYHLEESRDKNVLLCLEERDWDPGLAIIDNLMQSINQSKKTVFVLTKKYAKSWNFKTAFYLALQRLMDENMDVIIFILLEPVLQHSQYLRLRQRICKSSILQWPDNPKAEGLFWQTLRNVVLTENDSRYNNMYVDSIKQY

| SMILES | EC50 (human TLR8) | EC50 (human TLR7) |
| --- | --- | --- |
| CCCN(CCC(F)(F)F)C(=O)C1=Cc2ccc(C(=O)Nc3cccc(C)c3)cc2N=C(N)C1 [Example 51, 2-Amino-N8-(m-tolyl)-N4-propyl-N4-(3,3,3-trifluoropropyl)-3H-1-benzazepine-4,8-dicarboxamide] | 0.002 µM | 22 µM |
| CCCN(CCC)C(=O)C1=Cc2ccc(C(=O)Nc3ccn(C)n3)cc2N=C(N)C1 [Example 37, 2-Amino-N8-(1-methylpyrazol-3-yl)-N4,N4-dipropyl-3H-1-benzazepine-4,8-dicarboxamide] | 0.023 µM | 38 µM |
| CCCN(CCC)C(=O)C1=Cc2ccc(C(=O)Nc3cncn3C)cc2N=C(N)C1 [Example 12, 2-Amino-N8-(3-methylimidazol-4-yl)-N4,N4-dipropyl-3H-1-benzazepine-4,8-dicarboxamide] | 0.004 µM | > 100 µM |
| CCCN(Cc1ccc(CN)cc1)C(=O)C1=Cc2ccc(C(=O)Nc3cccc(C)c3)cc2N=C(N)C1 [Example 60, 2-Amino-N4-[[4-(aminomethyl)phenyl]methyl]-N8-(m-tolyl)-N4-propyl-3H-1-benzazepine-4,8-dicarboxamide] | 0.027 µM | > 100 µM |
| CCCN(CCC)C(=O)C1=Cc2ccc(C(=O)Nc3cccc(CCN)c3)cc2N=C(N)C1 [Example 17, 2-Amino-N8-[3-(2-aminoethyl)phenyl]-N4,N4-dipropyl-3H-1-benzazepine-4,8-dicarboxamide] | 0.006 µM | > 100 µM |
| CCCN(CCC)C(=O)C1=Cc2ccc(C(=O)Nc3nccs3)cc2N=C(N)C1 [Example 11, 2-Amino-N4,N4-dipropyl-N8-thiazol-2-yl-3H-1-benzazepine-4,8-dicarboxamide] | 0.029 µM | > 100 µM |
| CCCN(CCC)C(=O)C1=Cc2ccc(C(=O)Nc3ccccc3C)cc2N=C(N)C1 [Example 27, 2-Amino-N8-(o-tolyl)-N4,N4-dipropyl-3H-1-benzazepine-4,8-dicarboxamide] | 0.005 µM | 28 µM |
| CCCN(CCC)C(=O)C1=Cc2ccc(C(=O)Nc3ccc(F)cc3)cc2N=C(N)C1 [Example 13, 2-Amino-N8-(4-fluorophenyl)-N4,N4-dipropyl-3H-1-benzazepine-4,8-dicarboxamide] | 0.007 µM | > 100 µM |
| CCCN(CCC)C(=O)C1=Cc2ccc(C(=O)Nc3cccc(F)c3)cc2N=C(N)C1 [Example 19, 2-Amino-N8-(3-fluorophenyl)-N4,N4-dipropyl-3H-1-benzazepine-4,8-dicarboxamide] | 0.005 µM | > 100 µM |

Other lines, results leading:

| EC50 (human TLR8) | EC50 (human TLR7) | SMILES |
| --- | --- | --- |
| 0.017 µM | > 100 µM | CCCN(CCC)C(=O)C1=Cc2ccc(C(=O)Nc3cncc(CCN)c3)cc2N=C(N)C1 [Example 80, 2-Amino-N8-[5-(2-aminoethyl)-3-pyridyl]-N4,N4-dipropyl-3H-1-benzazepine-4,8-dicarboxamide] |
| 0.002 µM | 31 µM | CCCN(CC1CC1)C(=O)C1=Cc2ccc(C(=O)Nc3cncc(OCC)c3)cc2N=C(N)C1 [Example 79, 2-Amino-N4-(cyclopropylmethyl)-N8-(5-ethoxy-3-pyridyl)-N4-propyl-3H-1-benzazepine-4,8-dicarboxamide] |
| 0.024 µM | > 100 µM | CCCN(CCC)C(=O)C1=Cc2ccc(C(=O)Nc3cncc(CCCCN)c3)cc2N=C(N)C1 [Example 76, 2-Amino-N8-[5-(4-aminobutyl)-3-pyridyl]-N4,N4-dipropyl-3H-1-benzazepine-4,8-dicarboxamide] |
| 0.002 µM | 20 µM | CCCN(CC1CC1)C(=O)C1=Cc2ccc(C(=O)Nc3cccc(C)c3)cc2N=C(N)C1 [Example 53, 2-Amino-N4-(cyclopropylmethyl)-N8-(m-tolyl)-N4-propyl-3H-1-benzazepine-4,8-dicarboxamide] |
